From patent US10494363B2, “Non-steroidal glucocorticoid receptor modulators for local drug delivery” (LEO PHARMA A/S, priority 2015, dated 2019)

Tests used:
[1] = test system: TNF alpha release from human PBMCs; test: Inhibition of TNF alpha release from human PBMCs; assay type: cell-based; conditions: PBMC, LPS 1 μg/ml, 18 hours, AlphaLISA
Experimental: PBMC were isolated from fresh buffy coats by density centrifugation using lymphoprep (Medinor AB, cat no 1019818) tubes. Isolated PBMCs were washed in assay medium (RPMI1640 with 25 mM HEPES, 1% pen/strep, 200 mM L glutamine and 10% Foetal calf serum). Surplus PBMCs were frozen in medium containing extra 10% foetal calf serum and 5% DMSO. On the assay day, fresh cells or cryopreserved cells after thawing were washed in serum free medium (RPMI1640 with 25 mM HEPES, 1% pen/strep, 200 mM L glutamine and 0.5% human serum albumin) and counted, in order to determine the fraction of living cells (generally >95%).
Test compounds were diluted in DMSO over seven orders of magnitude, further diluted in serum-free medium and distributed into wells of 384 well tissue culture plates. LPS was added to a final concentration of 1 μg/ml to the cells. Immediately thereafter titrated test compounds were added and incubated for 18 hours at 37° C.
The level of TNF-a in the culture supernatant was quantitated by AlphaLISA (Perkin Elmer). 2-(3,5-dichloro-4-pyridinyl)-1-(7-methoxyspiro[1,3-benzodioxole-2,1′-cyclopentan]-4-yl)-ethanone (CAS 185406-34-2) at 100×IC50 was used to define the assay window.
Data were processed by sigmoidal curve fitting. EC50 and Emax were determined from the curve fits.

[2] = molecular target: T1, glucocorticoid receptor (GR), recombinant full-length receptor protein (Homo sapiens, UniProt P04150); test: Glucocorticoid receptor binding assay (fluorescence polarization kit); conditions: 4 nM receptor, 2.5 nM Fluormone GS1 tracer, 2h room temperature, read-out: GR binding ABS IC50
T1 construct: 4 nM recombinant, full-length receptor protein was incubated with increasing concentrations of GR ligand; purchased Life Technologies A-15897
T1 sequence (P04150 1-777): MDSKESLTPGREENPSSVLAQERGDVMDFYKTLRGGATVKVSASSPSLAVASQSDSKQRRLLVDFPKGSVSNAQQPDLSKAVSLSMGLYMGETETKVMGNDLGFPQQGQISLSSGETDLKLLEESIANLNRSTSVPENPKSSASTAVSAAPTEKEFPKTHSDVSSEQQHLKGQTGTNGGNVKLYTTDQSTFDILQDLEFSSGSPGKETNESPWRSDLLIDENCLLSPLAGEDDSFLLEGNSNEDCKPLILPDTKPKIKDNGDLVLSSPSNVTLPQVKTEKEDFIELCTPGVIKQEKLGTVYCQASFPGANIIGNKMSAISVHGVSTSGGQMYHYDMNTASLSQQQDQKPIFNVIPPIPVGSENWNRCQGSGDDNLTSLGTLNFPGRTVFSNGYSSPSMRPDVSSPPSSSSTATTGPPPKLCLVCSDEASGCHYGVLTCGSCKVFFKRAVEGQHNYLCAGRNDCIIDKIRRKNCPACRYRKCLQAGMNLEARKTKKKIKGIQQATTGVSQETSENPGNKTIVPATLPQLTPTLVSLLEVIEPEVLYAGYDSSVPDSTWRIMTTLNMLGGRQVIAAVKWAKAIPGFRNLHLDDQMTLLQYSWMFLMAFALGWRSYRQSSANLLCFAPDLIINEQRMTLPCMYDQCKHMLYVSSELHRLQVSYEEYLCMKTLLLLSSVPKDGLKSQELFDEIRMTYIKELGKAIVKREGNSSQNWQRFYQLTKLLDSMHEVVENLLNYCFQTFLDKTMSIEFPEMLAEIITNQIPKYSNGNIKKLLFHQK
Experimental: Test compounds were diluted in DMSO over seven orders of magnitude, further diluted in assay buffer and distributed into 384-well plates. The sensitivity limit of this assay was 2-4 nM.
Data were processed by sigmoidal curve fitting.
Absolute (Abs) IC50 and Emax were determined from the curve fits.

For `C[C@H](NC(=O)C1CCCO1)[C@H](Oc1ccc(C(=O)O[C@H]2CCCN(C(=O)C3COC(=O)C3)C2)cc1)c1ccc(C2CC2)cc1` (stereo in doubt) [Compound 79, [(3S)-1-[(3R)-5-oxotetrahydrofuran-3-carbonyl]-3-piperidyl] 4-[(1R,2S)-1-(4-cyclopropylphenyl)-2-[[(2R)-tetrahydrofuran-2-carbonyl]amino]propoxy]benzoate], the EC50 [1] was less than 100 nM and the IC50 [2] was less than 100 nM.

For `C[C@H](NC(=O)CO)[C@H](Oc1ccc(C(=O)N[C@H]2CCCN(C(=O)[C@H]3COC(=O)C3)C2)nc1)c1ccc(C2CC2)cc1` [Compound 21, 5-[(1R,2S)-1-(4-cyclopropylphenyl)-2-[(2-hydroxyacetyl)amino]propoxy]-N-[(3S)-1-[(3R)-5-oxotetrahydrofuran-3-carbonyl]-3-piperidyl]pyridine-2-carboxamide], the EC50 [1] was less than 100 nM and the IC50 [2] was less than 100 nM.

Compound `C[C@H](NC(=O)c1cncs1)[C@H](Oc1ccc(C(=O)O[C@H]2CCCN(C(=O)[C@H]3COC(=O)C3)C2)cc1)c1ccc(C2CC2)cc1` [Compound 27, [(3S)-1-[(3R)-5-oxotetrahydrofuran-3-carbonyl]-3-piperidyl] 4-[(1R,2S)-1-(4-cyclopropylphenyl)-2-(thiazole-5-carbonylamino)propoxy]benzoate] has an EC50 [1] of less than 100 nM and an IC50 [2] of less than 100 nM.

In the case of `Cc1ccc([C@@H](Oc2ccc(C(=O)N[C@@H]3CCCN(C(=O)[C@@H]4COC(=O)C4)C3)nc2)[C@H](C)NC(=O)C(F)(F)F)cc1` [Compound 60, N-[(3R)-1-[(3S)-5-oxotetrahydrofuran-3-carbonyl]-3-piperidyl]-5-[(1R,2S)-1-(p-tolyl)-2-[(2,2,2-trifluoroacetyl)amino]propoxy]pyridine-2-carboxamide], the EC50 [1] is reported as less than 100 nM.

In the case of `Cc1ccc([C@@H](Oc2ccc(C(=O)N[C@@H]3CCCN(C(=O)[C@@H]4CCC(=O)O4)C3)nc2)[C@H](C)NC(=O)C(F)(F)F)cc1` [Compound 61, N-[(3R)-1-[(2S)-5-oxotetrahydrofuran-2-carbonyl]-3-piperidyl]-5-[(1R,2S)-1-(p-tolyl)-2-[(2,2,2-trifluoroacetyl)amino]propoxy]pyridine-2-carboxamide], the EC50 [1] is reported as 100 to 300 nM.

For `Cc1ccc([C@@H](Oc2ccc(C(=O)N[C@@H]3CCCN(C(=O)[C@H]4CCC(=O)O4)C3)nc2)[C@H](C)NC(=O)C(F)(F)F)cc1` [Compound 62, N-[(3R)-1-[(2R)-5-oxotetrahydrofuran-2-carbonyl]-3-piperidyl]-5-[(1R,2S)-1-(p-tolyl)-2-[(2,2,2-trifluoroacetyl)amino]propoxy]pyridine-2-carboxamide], the EC50 [1] was less than 100 nM.

`Cc1ccc([C@@H](Oc2ccc(C(=O)N[C@H]3CCCN(C(=O)[C@@H]4COC(=O)C4)C3)nc2)[C@H](C)NC(=O)C(F)(F)F)cc1` [Compound 63, N-[(3S)-1-[(3S)-5-oxotetrahydrofuran-3-carbonyl]-3-piperidyl]-5-[(1R,2S)-1-(p-tolyl)-2-[(2,2,2-trifluoroacetyl)amino]propoxy]pyridine-2-carboxamide] gave an EC50 [1] of less than 100 nM.

Compound `Cc1ccc([C@@H](Oc2ccc(C(=O)N[C@H]3CCCN(C(=O)[C@@H]4CCC(=O)O4)C3)nc2)[C@H](C)NC(=O)C(F)(F)F)cc1` [Compound 64, N-[(3S)-1-[(2S)-5-oxotetrahydrofuran-2-carbonyl]-3-piperidyl]-5-[(1R,2S)-1-(p-tolyl)-2-[(2,2,2-trifluoroacetyl)amino]propoxy]pyridine-2-carboxamide] has an EC50 [1] of less than 100 nM.

Work on `Cc1ccc([C@@H](Oc2ccc(C(=O)N[C@@H]3CCN(C(=O)[C@H]4COC(=O)C4)C3)nc2)[C@H](C)NC(=O)C(F)(F)F)cc1` [Compound 65, N-[(3R)-1-[(3R)-5-oxotetrahydrofuran-3-carbonyl]pyrrolidin-3-yl]-5-[(1R,2S)-1-(p-tolyl)-2-[(2,2,2-trifluoroacetyl)amino]propoxy]pyridine-2-carboxamide] yielded an EC50 [1] of less than 100 nM and an IC50 [2] of 100 to 300 nM.

`C[C@H](NC(=O)C(F)(F)F)[C@H](Oc1ccc(C(=O)N[C@H]2CCCN(C(=O)[C@H]3COC(=O)C3)C2)nc1)c1ccc(Br)cc1` [Compound 67, 5-[(1R,2S)-1-(4-bromophenyl)-2-[(2,2,2-trifluoroacetyl)amino]propoxy]-N-[(3S)-1-[(3R)-5-oxotetrahydrofuran-3-carbonyl]-3-piperidyl]pyridine-2-carboxamide] showed an EC50 [1] of less than 100 nM and an IC50 [2] of less than 100 nM.

`C[C@H](NC(=O)C(F)(F)F)[C@H](Oc1ccc(C(=O)N[C@H]2CCCN(C(=O)[C@H]3COC(=O)C3)C2)nc1)c1ccc(-c2ccccc2)cc1` [Compound 68, N-[(3S)-1-[(3R)-5-oxotetrahydrofuran-3-carbonyl]-3-piperidyl]-5-[(1R,2S)-1-(4-phenylphenyl)-2-[(2,2,2-trifluoroacetyl)amino]propoxy]pyridine-2-carboxamide] was tested, and the EC50 [1] was less than 100 nM and the IC50 [2] was less than 100 nM.

Work on `Cc1ccc([C@@H](Oc2ccc(C(=O)N[C@H]3CCCN(C(=O)[C@H]4COC(=O)C4)C3)cc2)[C@H](C)NC(=O)C(F)(F)F)cc1` [Compound 69, N-[(3S)-1-[(3R)-5-oxotetrahydrofuran-3-carbonyl]-3-piperidyl]-4-[(1R,2S)-1-(p-tolyl)-2-[(2,2,2-trifluoroacetyl)amino]propoxy]benzamide] yielded an EC50 [1] of less than 100 nM and an IC50 [2] of less than 100 nM.

For `Cc1ccc([C@@H](Oc2ccc(C(=O)O[C@H]3CCCN(C(=O)[C@H]4COC(=O)C4)C3)cc2)[C@H](C)NC(=O)C(F)(F)F)cc1` [Compound 70, [(3S)-1-[(3R)-5-oxotetrahydrofuran-3-carbonyl]-3-piperidyl] 4-[(1R,2S)-1-(p-tolyl)-2-[(2,2,2-trifluoroacetyl)amino]propoxy]benzoate], the EC50 [1] was less than 100 nM.

With `Cc1ccc([C@@H](Oc2ccc(C(=O)N[C@H]3CCCN(C(=O)N[C@@H]4COC(=O)C4)C3)nc2)[C@H](C)NC(=O)C(F)(F)F)cc1` [Compound 71, N-[(3S)-1-[[(3S)-5-oxotetrahydrofuran-3-yl]carbamoyl]-3-piperidyl]-5-[(1R,2S)-1-(p-tolyl)-2-[(2,2,2-trifluoroacetyl)amino]propoxy]pyridine-2-carboxamide] the EC50 [1] was less than 100 nM and the IC50 [2] was less than 100 nM.

`Cc1ccc([C@@H](Oc2ccc(C(=O)N[C@H]3CCCN(C(=O)O[C@H]4CCOC4=O)C3)nc2)[C@H](C)NC(=O)C(F)(F)F)cc1` [Compound 73, [(3S)-2-oxotetrahydrofuran-3-yl] (3S)-3-[[5-[(1R,2S)-1-(p-tolyl)-2-[(2,2,2-trifluoroacetyl)amino]propoxy]pyridine-2-carbonyl]amino]piperidine-1-carboxylate] was tested, and the IC50 [2] was less than 100 nM.

`Cc1ccc([C@H](Oc2ccc(C(=O)N[C@H]3CCCN(C(=O)[C@@H]4COC(=O)C4)C3)nc2)[C@H](C)NC(=O)C(F)(F)F)cc1` [Compound 80, N-[(3S)-1-[(3S)-5-oxotetrahydrofuran-3-carbonyl]-3-piperidyl]-5-[(1S,2S)-1-(p-tolyl)-2-[(2,2,2-trifluoroacetyl)amino]propoxy]pyridine-2-carboxamide] was tested, and the EC50 [1] was less than 100 nM.

Compound `Cc1ccc([C@H](Oc2ccc(C(=O)N[C@H]3CCCN(C(=O)[C@H]4COC(=O)C4)C3)nc2)[C@H](C)NC(=O)C(F)(F)F)cc1` [Compound 81, N-[(3S)-1-[(3R)-5-oxotetrahydrofuran-3-carbonyl]-3-piperidyl]-5-[(1S,2S)-1-(p-tolyl)-2-[(2,2,2-trifluoroacetyl)amino]propoxy]pyridine-2-carboxamide] has an EC50 [1] of less than 100 nM.

`C[C@@H]1C[C@H]2[C@@H]3CCC4=CC(=O)C=C[C@]4(C)[C@@]3(F)[C@@H](O)C[C@]2(C)[C@@]1(O)C(=O)CO` [Dexamethasone, reference compound] was tested, and the EC50 [1] was less than 100 nM.
